# Columns and labels:
# GLP-1R = GLP-1R (Homo sapiens, UniProt P43220); experiment: ebBRET pathway activation (effector membrane translocation, 15 pathways) at the plasma membrane (rGFP-CAAX); type: cell-based; details: plasma membrane rGFP-CAAX, HEK293, agonist incubation 0 min, normalized to the highest responding drug, F test P < 0.00625, n=3-6
# [1] = Adverse drug event analysis (FAERS, log likelihood ratio); details: for proportion, Abdominal pain: ADR_TERM Abdominal pain; for proportion, Eructation: ADR_TERM Eructation; for proportion, Nausea: ADR_TERM Nausea; for proportion, Pancreatic disease: ADR_TERM Pancreatic disease; for proportion, Vomiting: ADR_TERM Vomiting; for logLR: Fig. 6d
# [2] = ref [56], [57], cited from earlier work
# [3] = Supplementary Fig. 21, first group
# [4] = Supplementary Fig. 21, fourth group (r25-r28)
# [5] = Supplementary Fig. 21, third group (r21-r24)
# [6] = SOC Endocrine disorders, FAERS via Open Targets
# [7] = SOC Gastrointestinal disorders, FAERS via Open Targets
# [8] = SOC Investigations, FAERS via Open Targets
# [9] = SOC Metabolism and nutrition disorders, FAERS via Open Targets
# Sequence of GLP-1R (P43220 24-463): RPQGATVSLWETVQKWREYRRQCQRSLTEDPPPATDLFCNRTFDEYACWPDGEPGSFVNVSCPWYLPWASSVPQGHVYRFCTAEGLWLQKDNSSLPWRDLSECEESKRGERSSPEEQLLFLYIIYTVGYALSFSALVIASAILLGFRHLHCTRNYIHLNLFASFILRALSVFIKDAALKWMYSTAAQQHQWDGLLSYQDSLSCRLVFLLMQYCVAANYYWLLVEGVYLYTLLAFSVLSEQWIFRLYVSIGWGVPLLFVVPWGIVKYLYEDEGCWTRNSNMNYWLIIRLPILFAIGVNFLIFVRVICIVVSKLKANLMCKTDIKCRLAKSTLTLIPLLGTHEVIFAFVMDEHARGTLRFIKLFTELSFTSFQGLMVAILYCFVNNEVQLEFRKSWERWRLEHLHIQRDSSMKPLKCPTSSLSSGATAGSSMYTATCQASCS
structure (smiles),measurement,setting,value
CC[C@H](C)[C@H](NC(=O)[C@H](Cc1ccccc1)NC(=O)[C@H](CCC(=O)O)NC(=O)[C@H](CCCCN)NC(=O)[C@H](C)NC(=O)[C@H](C)NC(=O)[C@H](CCC(N)=O)NC(=O)CNC(=O)[C@H](CCC(=O)O)NC(=O)[C@H](CC(C)C)NC(=O)[C@H](Cc1ccc(O)cc1)NC(=O)[C@H](CO)NC(=O)[C@H](CO)NC(=O)[C@@H](NC(=O)[C@H](CC(=O)O)NC(=O)[C@H](CO)NC(=O)[C@@H](NC(=O)[C@H](Cc1ccccc1)NC(=O)[C@@H](NC(=O)CNC(=O)[C@H](CCC(=O)O)NC(=O)[C@H](C)NC(=O)[C@H](Cc1c[nH]cn1)NC(=O)[C@H](CCCNC(=N)N)NC(=O)[C@H](CCC(=O)O)NC(=O)[C@H](Cc1ccccc1)NC(=O)[C@H](CCC(=O)O)NC(=O)[C@H](CC(=O)O)NC(=O)[C@@H](N)Cc1c[nH]cn1)[C@@H](C)O)[C@@H](C)O)C(C)C)C(=O)N[C@@H](C)C(=O)N[C@@H](Cc1c[nH]c2ccccc12)C(=O)N[C@@H](CC(C)C)C(=O)N[C@H](C(=O)N[C@@H](CCCCN)C(=O)NCC(=O)N[C@@H](CCCNC(=N)N)C(=O)NCC(=O)O)C(C)C [GLP-1 (1-37)],"Efficacy (normalized), GRK2/Gβγ",GLP-1R; GRK2-D110A-RlucII,0
same,"Efficacy (normalized), Gα13",GLP-1R; PDZRhoGEF-RlucII,0
same,"Efficacy (normalized), Gαi1",GLP-1R; Rap1Gap-RlucII,0
same,"Efficacy (normalized), Gαi2",GLP-1R; Rap1Gap-RlucII,0
same,"Efficacy (normalized), Gαi3",GLP-1R; Rap1Gap-RlucII,0
same,"Efficacy (normalized), GαoA",GLP-1R; Rap1Gap-RlucII,0
same,"Efficacy (normalized), GαoB",GLP-1R; Rap1Gap-RlucII,0
same,"Efficacy (normalized), Gαz",GLP-1R; Rap1Gap-RlucII,0
same,"Efficacy (normalized), Gαs",GLP-1R; Rluc8-mGs,0
same,"Efficacy (normalized), Gα11",GLP-1R; p63RhoGEF-RlucII,0
same,"Efficacy (normalized), Gα14",GLP-1R; p63RhoGEF-RlucII,0
same,"Efficacy (normalized), Gα15",GLP-1R; p63RhoGEF-RlucII,0
same,"Efficacy (normalized), Gαq",GLP-1R; p63RhoGEF-RlucII,0
same,"Efficacy (normalized), βARR2",GLP-1R; β-arrestin-2-RlucII,0
CCCCCCCCCCCCCCCC(=O)N[C@@H](CCC(=O)NCCCC[C@H](NC(=O)[C@H](C)NC(=O)[C@H](C)NC(=O)[C@H](CCC(N)=O)NC(=O)CNC(=O)[C@H](CCC(=O)O)NC(=O)[C@H](CC(C)C)NC(=O)[C@H](Cc1ccc(O)cc1)NC(=O)[C@H](CO)NC(=O)[C@H](CO)NC(=O)[C@@H](NC(=O)[C@H](CC(=O)O)NC(=O)[C@H](CO)NC(=O)[C@@H](NC(=O)[C@H](Cc1ccccc1)NC(=O)[C@@H](NC(=O)CNC(=O)[C@H](CCC(=O)O)NC(=O)[C@H](C)NC(=O)[C@@H](N)Cc1cnc[nH]1)[C@@H](C)O)[C@@H](C)O)C(C)C)C(=O)N[C@@H](CCC(=O)O)C(=O)N[C@@H](Cc1ccccc1)C(=O)N[C@H](C(=O)N[C@@H](C)C(=O)N[C@@H](Cc1c[nH]c2ccccc12)C(=O)N[C@@H](CC(C)C)C(=O)N[C@H](C(=O)N[C@@H](CCCNC(=N)N)C(=O)NCC(=O)N[C@@H](CCCNC(=N)N)C(=O)NCC(=O)O)C(C)C)[C@@H](C)CC)C(=O)O [Liraglutide],"proportion, Abdominal pain",[1]; Supplementary Fig. 21,0.02341
same,"proportion, Adenocarcinoma pancreas","[1]; Supplementary Fig. 21, ADR_TERM Adenocarcinoma pancreas",0.01752
same,"proportion, Eructation",[1]; Supplementary Fig. 21,0.03019
same,"proportion, Nausea",[1]; Supplementary Fig. 21,0.07705
same,"proportion, Pancreatic disease",[1]; [3],0.08817
same,"proportion, Pancreatic disease",[1]; [4],0.1539
same,"proportion, Pancreatic disease","[1]; Supplementary Fig. 21, second group (r20)",0.02656
same,"proportion, Pancreatic disease",[1]; [5],0.5446
same,"proportion, Vomiting",[1]; Supplementary Fig. 21,0.03854
CC[C@H](C)[C@H](NC(=O)[C@H](Cc1ccccc1)NC(=O)[C@H](CCC(=O)O)NC(=O)[C@H](CCCCNC(=O)COCCOCCNC(=O)COCCOCCNC(=O)CC[C@H](NC(=O)CCCCCCCCCCCCCCCCC(=O)O)C(=O)O)NC(=O)[C@H](C)NC(=O)[C@H](C)NC(=O)[C@H](CCC(N)=O)NC(=O)CNC(=O)[C@H](CCC(=O)O)NC(=O)[C@H](CC(C)C)NC(=O)[C@H](Cc1ccc(O)cc1)NC(=O)[C@H](CO)NC(=O)[C@H](CO)NC(=O)[C@@H](NC(=O)[C@H](CC(=O)O)NC(=O)[C@H](CO)NC(=O)[C@@H](NC(=O)[C@H](Cc1ccccc1)NC(=O)[C@@H](NC(=O)CNC(=O)[C@H](CCC(=O)O)NC(=O)C(C)(C)NC(=O)[C@@H](N)Cc1cnc[nH]1)[C@@H](C)O)[C@@H](C)O)C(C)C)C(=O)N[C@@H](C)C(=O)N[C@@H](Cc1c[nH]c2ccccc12)C(=O)N[C@@H](CC(C)C)C(=O)N[C@H](C(=O)N[C@@H](CCCNC(=N)N)C(=O)NCC(=O)N[C@@H](CCCNC(=N)N)C(=O)NCC(=O)O)C(C)C [Semaglutide],"pancreatitis reports, in words",[2]; FAERS,lower incidence of pancreatitis
same,"logLR, diabetic ketoacidosis",[2]; [6],101.6
same,"logLR, diabetic retinopathy",[2]; [6],83.01
same,"logLR, abdominal pain",[2]; [7],80.54
same,"logLR, diarrhoea",[2]; [7],91.4
same,"logLR, eructation",[2]; [7],76.22
same,"logLR, gastrointestinal disorder",[2]; [7],66.93
same,"logLR, nausea",[2]; [7],351
same,"logLR, pancreatic carcinoma",[2]; [7],37.15
same,"logLR, pancreatitis",[2]; [7],599.6
same,"logLR, pancreatitis acute",[2]; [7],54.4
same,"logLR, vomiting",[2]; [7],332.8
same,"logLR, decreased appetite","[2]; SOC General disorders and administration site conditions, FAERS via Open Targets",42.19
same,"logLR, blood glucose increased",[2]; [8],43.39
same,"logLR, glycosylated haemoglobin increased",[2]; [8],60.95
same,"logLR, heart sounds",[2]; [8],49.27
same,"logLR, lipase increased",[2]; [8],49.97
same,"logLR, weight decreased",[2]; [8],122.9
same,"logLR, dehydration",[2]; [9],53.42
same,"logLR, euglycaemic diabetic ketoacidosis",[2]; [9],71.84
same,"logLR, retinopathy",[2]; [9],95.38
same,"logLR, acute kidney injury","[2]; SOC Renal and urinary disorders, FAERS via Open Targets",39.07
same,"logLR, prolonged expiration","[2]; SOC Respiratory disorders, FAERS via Open Targets",36.95
same,logLR,[1]; Endocrine disorders: diabetic ketoacidosis,101.6
same,logLR,[1]; Endocrine disorders: diabetic retinopathy,83.01
same,logLR,[1]; Gastrointestinal disorders: abdominal pain,80.54
same,logLR,[1]; Gastrointestinal disorders: diarrhoea,91.4
same,logLR,[1]; Gastrointestinal disorders: eructation,76.22
same,logLR,[1]; Gastrointestinal disorders: gastrointestinal disorder,66.93
same,logLR,[1]; Gastrointestinal disorders: nausea,351
same,logLR,[1]; Gastrointestinal disorders: pancreatic carcinoma,37.15
same,logLR,[1]; Gastrointestinal disorders: pancreatitis,599.6
same,logLR,[1]; Gastrointestinal disorders: pancreatitis acute,54.4
same,logLR,[1]; Gastrointestinal disorders: vomiting,332.8
same,logLR,[1]; General disorders and administration site conditions: decreased appetite,42.19
same,logLR,[1]; Investigations: blood glucose increased,43.39
same,logLR,[1]; Investigations: glycosylated haemoglobin increased,60.95
same,logLR,[1]; Investigations: heart sounds,49.27
same,logLR,[1]; Investigations: lipase increased,49.97
same,logLR,[1]; Investigations: weight decreased,122.9
same,logLR,[1]; Metabolism and nutrition disorders: dehydration,53.42
same,logLR,[1]; Metabolism and nutrition disorders: euglycaemic diabetic ketoacidosis,71.84
same,logLR,[1]; Metabolism and nutrition disorders: retinopathy,95.38
same,logLR,[1]; Renal and urinary disorders: acute kidney injury,39.07
same,logLR,[1]; Respiratory disorders: prolonged expiration,36.95
same,"proportion, Abdominal pain",[1]; Supplementary Fig. 21,0.04766
same,"proportion, Diarrhoea","[1]; Supplementary Fig. 21, ADR_TERM Diarrhoea",0.05408
same,"proportion, Eructation",[1]; Supplementary Fig. 21,0.0451
same,"proportion, Gastrointestinal disorder","[1]; Supplementary Fig. 21, ADR_TERM Gastrointestinal disorder",0.03961
same,"proportion, Nausea",[1]; Supplementary Fig. 21,0.2077
same,"proportion, Pancreatic disease",[1]; [3],0.02198
same,"proportion, Pancreatic disease",[1]; [4],0.03219
same,"proportion, Pancreatic disease",[1]; [5],0.3548
same,"proportion, Vomiting",[1]; Supplementary Fig. 21,0.1969

# Source: PMC10562414, “GLP-1R signaling neighborhoods associate with the susceptibility to adverse drug reactions of incretin mimetics” (Nature Communications, 2023)
